Source: ChEMBL document CHEMBL1201862, “PubChem BioAssay data set” (2004)
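In this assay, cells in 96-well plates receive the compound at five concentrations for 48 hours. Endpoints are linearly interpolated between the surrounding concentrations. At the GI50, growth is halved.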 Calls of active or inactive are those of the source. Rule as the data show it: active = GI50 up to about 1.1 µM and inactive = higher.

Experiments:
Assay in all cases: inhibition of tumour cell growth, NCI panel, 48 h
NCI/ADR-RES = tested on: NCI/ADR-RES
CAKI-1 = tested on: CAKI-1
786-0 = tested on: 786-0
MOLT-4 = tested on: MOLT-4
HOP-62 = tested on: HOP-62
SNB-75 = tested on: SNB-75
CCRF-CEM = tested on: CCRF-CEM
SK-MEL-2 = tested on: SK-MEL-2
UO-31 = tested on: UO-31
T47D = tested on: T47D
EKVX = tested on: EKVX
SK-MEL-28 = tested on: SK-MEL-28
RPMI-8226 = tested on: RPMI-8226
MDA-MB-231 = tested on: MDA-MB-231
HT-29 = tested on: HT-29
MDA-N = tested on: MDA-N
RXF 393 = tested on: RXF 393
UACC-257 = tested on: UACC-257
OVCAR-8 = tested on: OVCAR-8
LOX IMVI = tested on: LOX IMVI

SMILES	GI50 (NCI/ADR-RES)	GI50 (CAKI-1)	GI50 (786-0)	GI50 (MOLT-4)	GI50 (HOP-62)	GI50 (SNB-75)	GI50 (CCRF-CEM)	GI50 (SK-MEL-2)	GI50 (UO-31)	GI50 (T47D)	GI50 (EKVX)	GI50 (SK-MEL-28)	GI50 (RPMI-8226)	GI50 (MDA-MB-231)	GI50 (HT-29)	GI50 (MDA-N)	GI50 (RXF 393)	GI50 (UACC-257)	GI50 (OVCAR-8)	GI50 (LOX IMVI)
CCOC(=O)c1nc2ccccc2nc1Nc1ccc(OC)c(OC)c1	> 100 µM (inactive)	> 100 µM (inactive)	77.1 µM (inactive)	> 100 µM (inactive)	> 100 µM (inactive)	21.9 µM (inactive)	> 100 µM (inactive)	> 100 µM (inactive)	> 100 µM (inactive)	> 100 µM (inactive)	18.7 µM (inactive)	> 100 µM (inactive)	> 100 µM (inactive)	> 100 µM (inactive)	> 100 µM (inactive)	> 100 µM (inactive)	–	–	–	–
COCOc1ccc(C(=O)C(C)c2ccc(OCOC)cc2OCOC)c(O)c1 (stereo unspecified)	–	52.1 µM (inactive)	> 100 µM (inactive)	42.6 µM (inactive)	> 100 µM (inactive)	33.5 µM (inactive)	83.4 µM (inactive)	–	33.2 µM (inactive)	–	83.6 µM (inactive)	> 100 µM (inactive)	71.1 µM (inactive)	–	> 100 µM (inactive)	52.8 µM (inactive)	37.2 µM (inactive)	56.4 µM (inactive)	> 100 µM (inactive)	–
Cc1nn(C(=O)Cc2ccccc2)c2c1C(c1ccc(/C=C/c3ccccc3)cc1)SC(=N)N2 (stereo unspecified)	–	> 100 µM (inactive)	> 100 µM (inactive)	> 100 µM (inactive)	> 100 µM (inactive)	> 100 µM (inactive)	> 100 µM (inactive)	–	> 100 µM (inactive)	> 100 µM (inactive)	> 100 µM (inactive)	> 100 µM (inactive)	> 100 µM (inactive)	> 100 µM (inactive)	> 100 µM (inactive)	> 100 µM (inactive)	–	> 100 µM (inactive)	> 100 µM (inactive)	> 100 µM (inactive)
CCCCCC#CCOC(=O)C(=[N+]=[N-])P(=O)(c1ccccc1)c1ccccc1	–	–	> 10 µM (inactive)	> 10 µM (inactive)	> 10 µM (inactive)	> 10 µM (inactive)	–	–	> 10 µM (inactive)	> 10 µM (inactive)	> 10 µM (inactive)	> 10 µM (inactive)	9.84 µM (inactive)	> 10 µM (inactive)	> 10 µM (inactive)	> 10 µM (inactive)	> 10 µM (inactive)	> 10 µM (inactive)	> 10 µM (inactive)	> 10 µM (inactive)
CC1=CCCC(C)(O)C2CC(CCC3(C)OC3CC1)C(C)C(=O)O2 (stereo unspecified)	> 100 µM (inactive)	> 100 µM (inactive)	> 100 µM (inactive)	43.7 µM (inactive)	–	> 100 µM (inactive)	> 100 µM (inactive)	> 100 µM (inactive)	> 100 µM (inactive)	> 100 µM (inactive)	> 100 µM (inactive)	> 100 µM (inactive)	> 100 µM (inactive)	> 100 µM (inactive)	> 100 µM (inactive)	> 100 µM (inactive)	–	> 100 µM (inactive)	> 100 µM (inactive)	> 100 µM (inactive)
O=C(CSCC(=O)N/N=C/c1ccc2c(c1)OCO2)N/N=C/c1ccc2c(c1)OCO2	> 100 µM (inactive)	> 100 µM (inactive)	> 100 µM (inactive)	21.5 µM (inactive)	> 100 µM (inactive)	> 100 µM (inactive)	82.2 µM (inactive)	> 100 µM (inactive)	> 100 µM (inactive)	55.5 µM (inactive)	55.8 µM (inactive)	> 100 µM (inactive)	49.3 µM (inactive)	> 100 µM (inactive)	> 100 µM (inactive)	–	> 100 µM (inactive)	30.3 µM (inactive)	49 µM (inactive)	> 100 µM (inactive)
C#CCOCn1ccc(=O)[nH]c1=O	> 100 µM (inactive)	> 100 µM (inactive)	> 100 µM (inactive)	> 100 µM (inactive)	> 100 µM (inactive)	> 100 µM (inactive)	> 100 µM (inactive)	> 100 µM (inactive)	> 100 µM (inactive)	> 100 µM (inactive)	> 100 µM (inactive)	> 100 µM (inactive)	> 100 µM (inactive)	> 100 µM (inactive)	> 100 µM (inactive)	> 100 µM (inactive)	–	> 100 µM (inactive)	> 100 µM (inactive)	> 100 µM (inactive)
COc1cccc2c1C(=O)c1c(O)c3c(c(O)c1C2=O)C[C@@](O)(/C(C)=N\O)C[C@@H]3OC1CC(N)C(O)C(C)O1 (stereo partly specified)	–	1.93 µM (inactive)	1.06 µM (active)	0.0661 µM (active)	1.24 µM (inactive)	0.501 µM (active)	0.187 µM (active)	1.1 µM (active)	10 µM (inactive)	0.723 µM (active)	3.19 µM (inactive)	1.64 µM (inactive)	0.592 µM (active)	2.51 µM (inactive)	1.34 µM (inactive)	1.88 µM (inactive)	1.41 µM (inactive)	1.78 µM (inactive)	1.15 µM (inactive)	0.388 µM (active)
CC[C@H]1C=CCC[C@@]2(C[C@@H]3CC[C@H]4[C@H](C(=O)OCCCCCCCCCCCCCCCC(=O)N(CCCN)C[C@@H](O)CCN)[C@]5(CCC[C@@H](C)O5)NC(=[N+]34)N2)O1	1.63 µM (inactive)	0.532 µM (active)	0.543 µM (active)	0.27 µM (active)	1.26 µM (inactive)	–	–	0.53 µM (active)	0.471 µM (active)	–	1.08 µM (active)	1.28 µM (inactive)	0.177 µM (active)	–	0.387 µM (active)	0.407 µM (active)	1.6 µM (inactive)	0.604 µM (active)	0.693 µM (active)	0.36 µM (active)
CSc1nc(=S)[nH]c2c1c(C)nn2-c1ccccc1	–	21.2 µM (inactive)	24.3 µM (inactive)	14.2 µM (inactive)	41.7 µM (inactive)	–	10.6 µM (inactive)	22.8 µM (inactive)	22 µM (inactive)	19.1 µM (inactive)	18.1 µM (inactive)	38.8 µM (inactive)	6.73 µM (inactive)	22.2 µM (inactive)	28.5 µM (inactive)	24.8 µM (inactive)	26.2 µM (inactive)	20.5 µM (inactive)	–	15.7 µM (inactive)
C=C1CC(Cn2ccc(=O)[nH]c2=O)(c2ccc(Cl)cc2)OC1=O (stereo unspecified)	4.56 µM (inactive)	2.42 µM (inactive)	2.04 µM (inactive)	1.78 µM (inactive)	18.2 µM (inactive)	15.1 µM (inactive)	1.63 µM (inactive)	5.65 µM (inactive)	18 µM (inactive)	3.03 µM (inactive)	16.4 µM (inactive)	4.3 µM (inactive)	1.28 µM (inactive)	14.6 µM (inactive)	5.41 µM (inactive)	4.58 µM (inactive)	–	3.58 µM (inactive)	7.87 µM (inactive)	2.14 µM (inactive)
O=C(O)CC(Cc1ccccc1)C(=O)O (stereo unspecified)	> 100 µM (inactive)	> 100 µM (inactive)	76.2 µM (inactive)	> 100 µM (inactive)	> 100 µM (inactive)	–	> 100 µM (inactive)	> 100 µM (inactive)	> 100 µM (inactive)	> 100 µM (inactive)	> 100 µM (inactive)	> 100 µM (inactive)	> 100 µM (inactive)	–	> 100 µM (inactive)	56.5 µM (inactive)	> 100 µM (inactive)	> 100 µM (inactive)	> 100 µM (inactive)	> 100 µM (inactive)
CC(=O)c1cc2c(s1)C(=O)c1sccc1C2=O	0.056 µM (active)	0.212 µM (active)	0.195 µM (active)	0.0486 µM (active)	0.0434 µM (active)	0.0204 µM (active)	0.0392 µM (active)	0.076 µM (active)	0.0314 µM (active)	0.222 µM (active)	0.118 µM (active)	0.014 µM (active)	0.0392 µM (active)	0.0346 µM (active)	0.202 µM (active)	–	0.0254 µM (active)	0.0146 µM (active)	0.0738 µM (active)	0.0102 µM (active)
CN(C)CCNC(=O)c1ccc2nc3c(nc2c1)C(=O)c1ccccc1-3	–	> 100 µM (inactive)	31.8 µM (inactive)	12.9 µM (inactive)	29 µM (inactive)	30.5 µM (inactive)	9.75 µM (inactive)	–	40.6 µM (inactive)	–	> 100 µM (inactive)	> 100 µM (inactive)	26.1 µM (inactive)	–	26.4 µM (inactive)	18.2 µM (inactive)	85.5 µM (inactive)	76.6 µM (inactive)	36.5 µM (inactive)	29.9 µM (inactive)
Cc1cc2c(c(C)c1O)C(C)(C)CN2C(=O)C(C)(C)C	16.5 µM (inactive)	–	> 100 µM (inactive)	59.4 µM (inactive)	> 100 µM (inactive)	28 µM (inactive)	77.6 µM (inactive)	–	74.5 µM (inactive)	56.5 µM (inactive)	> 100 µM (inactive)	> 100 µM (inactive)	> 100 µM (inactive)	86.9 µM (inactive)	57 µM (inactive)	> 100 µM (inactive)	22.7 µM (inactive)	> 100 µM (inactive)	> 100 µM (inactive)	> 100 µM (inactive)
CCCCCN1C(=O)C(Cc2ccccc2)N=C(c2ccc(O)cc2)c2cc(Cl)ccc21 (stereo unspecified)	8.11 µM (inactive)	13.8 µM (inactive)	13.6 µM (inactive)	4.09 µM (inactive)	23.7 µM (inactive)	4.61 µM (inactive)	12.2 µM (inactive)	14.6 µM (inactive)	10.4 µM (inactive)	3.72 µM (inactive)	8.41 µM (inactive)	15.1 µM (inactive)	2.9 µM (inactive)	17.3 µM (inactive)	9.06 µM (inactive)	> 21.2 µM (inactive)	–	7.66 µM (inactive)	8.87 µM (inactive)	6.56 µM (inactive)
